The source made the active and inactive calls.
Tests used:
[1] = biological target: T1, Mannose-6-phosphate isomerase (Homo sapiens, UniProt P34949); experiment: MPI enzyme activity inhibition – biochemical, fluorescence intensity, coupled assay, primary screen (AID 1209)
T1 sequence (P34949 whole entry): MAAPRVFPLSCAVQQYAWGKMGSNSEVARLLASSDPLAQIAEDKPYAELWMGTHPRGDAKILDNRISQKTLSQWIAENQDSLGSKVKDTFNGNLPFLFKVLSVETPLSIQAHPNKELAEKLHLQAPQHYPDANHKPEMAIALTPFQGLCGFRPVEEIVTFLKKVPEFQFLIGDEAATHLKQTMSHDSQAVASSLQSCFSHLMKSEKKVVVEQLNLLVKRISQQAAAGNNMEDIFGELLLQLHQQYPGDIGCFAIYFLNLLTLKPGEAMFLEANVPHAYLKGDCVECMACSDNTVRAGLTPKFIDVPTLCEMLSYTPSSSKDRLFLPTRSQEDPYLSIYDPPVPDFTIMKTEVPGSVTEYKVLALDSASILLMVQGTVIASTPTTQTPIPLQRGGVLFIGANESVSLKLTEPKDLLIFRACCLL

[2] = biological target: T1, Mannose-6-phosphate isomerase; experiment: MPI inhibition at elevated mannose 6-phosphate – biochemical, fluorescence intensity, high mannose 6-phosphate, primary screen (AID 1220)
[3] = tested on: BJ; experiment: BJ-TERT fibroblast viability loss – cell-based, RAS-independent, luminescence, dose response (AID 1933); format: functional; settings: Homo sapiens
[4] = biological target: T2, Heat shock factor protein 1 (Mus musculus, UniProt P38532); experiment: decrease of HSF1-responsive luciferase luminescence – cell-based, NIH3T3, dose retest, confirmation (AID 2382); format: functional;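 further: NIH3T3 fibroblasts with HSF1-driven luciferase reporter stressed by proteasome inhibitor MG132; luminescence from HSF1-driven luciferase expression after 8 hours of MG132 stress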
T2 sequence (P38532 whole entry): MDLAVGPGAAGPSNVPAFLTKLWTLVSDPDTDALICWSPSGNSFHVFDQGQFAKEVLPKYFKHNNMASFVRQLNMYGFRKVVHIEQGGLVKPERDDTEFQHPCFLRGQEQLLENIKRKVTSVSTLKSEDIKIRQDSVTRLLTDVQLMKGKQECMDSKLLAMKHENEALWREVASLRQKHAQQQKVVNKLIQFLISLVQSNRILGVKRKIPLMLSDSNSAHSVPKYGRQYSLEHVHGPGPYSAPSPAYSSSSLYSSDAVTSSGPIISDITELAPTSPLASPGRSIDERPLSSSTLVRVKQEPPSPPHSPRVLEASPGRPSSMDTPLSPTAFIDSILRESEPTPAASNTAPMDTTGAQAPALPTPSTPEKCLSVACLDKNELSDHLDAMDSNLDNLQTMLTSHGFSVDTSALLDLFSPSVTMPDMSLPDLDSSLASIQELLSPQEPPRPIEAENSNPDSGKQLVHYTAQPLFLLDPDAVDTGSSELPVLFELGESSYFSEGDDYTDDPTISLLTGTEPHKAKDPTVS

[5] = tested on: BJ; experiment: cells; format: functional, cell-based; settings: Homo sapiens
[6] = biological target: T3, Sphingosine 1-phosphate receptor 4 (Homo sapiens, UniProt O95977); experiment: Fluorescence dose response cell-based high throughput screening assay for antagonists of the Sphingosine 1-Phosphate Receptor 4 (S1P4). [Related pubchem assays: 1524 (Confirmation in triplicates.), 1510 (Primary screen.)]; format: functional
T3 sequence (O95977 whole entry): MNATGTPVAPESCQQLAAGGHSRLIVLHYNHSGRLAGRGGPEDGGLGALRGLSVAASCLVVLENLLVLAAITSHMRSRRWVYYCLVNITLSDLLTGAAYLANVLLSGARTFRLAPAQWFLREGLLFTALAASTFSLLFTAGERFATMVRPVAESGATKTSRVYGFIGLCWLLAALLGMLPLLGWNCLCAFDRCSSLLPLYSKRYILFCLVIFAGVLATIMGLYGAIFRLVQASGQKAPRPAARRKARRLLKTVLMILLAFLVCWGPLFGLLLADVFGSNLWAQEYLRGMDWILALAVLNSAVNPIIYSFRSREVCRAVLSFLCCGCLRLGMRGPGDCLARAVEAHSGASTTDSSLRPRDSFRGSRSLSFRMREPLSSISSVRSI

[7] = tested on: BJ; experiment: BJ-TERT-LT-ST fibroblast viability loss – cell-based, RAS-independent, luminescence, dose response (AID 1935); format: functional; settings: Homo sapiens;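 further: BJ fibroblasts immortalized with TERT plus LT and ST oncogenes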
[8] = DRD fibroblast viability loss – cell-based, non-viral oncogenic, luminescence, dose response (AID 1934); format: functional; settings: Homo sapiens
[9] = biological target: Sphingosine 1-phosphate receptor 1 (Homo sapiens, UniProt P21453); format: functional;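 further: Tango beta-arrestin reporter U2OS cells stimulated with S1P near its EC80; inhibitor potency meaning antagonism of receptor activation by the natural agonist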
Sequence of Sphingosine 1-phosphate receptor 1 (P21453 whole entry): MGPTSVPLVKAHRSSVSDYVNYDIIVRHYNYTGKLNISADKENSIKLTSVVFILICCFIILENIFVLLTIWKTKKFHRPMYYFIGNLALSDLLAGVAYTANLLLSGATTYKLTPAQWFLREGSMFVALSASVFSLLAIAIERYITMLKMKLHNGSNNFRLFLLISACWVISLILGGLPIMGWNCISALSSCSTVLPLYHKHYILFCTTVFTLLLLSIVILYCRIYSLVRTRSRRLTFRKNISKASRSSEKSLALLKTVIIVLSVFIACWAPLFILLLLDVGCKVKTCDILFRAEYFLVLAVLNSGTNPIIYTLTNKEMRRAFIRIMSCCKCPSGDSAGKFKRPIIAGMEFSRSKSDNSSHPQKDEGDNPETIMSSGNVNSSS

[10] = HEK-293T viability loss after treatment – luminescence, T-cell screen hits, cytotoxicity control for TCR NF-kB inhibitor project, dose response (AID 489026); format: functional, cell-based;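 further: cells exposed to compound about 14 hours before the viability readout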
[11] = tested on: BJ; experiment: growth inhibition of engineered Ras-driven BJ cells – cell-based, alamar blue fluorescence, cherrypicked samples, dose response (AID 2631); format: functional; settings: Homo sapiens;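 further: confirmatory dose-response assay in RAS-dependent BJ fibroblasts engineered with TERT, LT and ST, with cytotoxicity read by fluorescence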
[12] = tested on: INS1; experiment: INS-1E survival protection against cytokine death – cell-based, luminescence, retest, dose response (AID 449756); format: functional; settings: Rattus norvegicus;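 further: cell death triggered by IL-1 beta plus TNF-alpha plus IFN-gamma mixture; protective hits raise ATP signal compared with cytokine alone wells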
[13] = biological target: Protein-tyrosine kinase 2-beta (Homo sapiens, UniProt Q14289);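 further: potency of inhibitors of PYK2 kinase phosphorylation of poly-GT substrate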
Sequence of Protein-tyrosine kinase 2-beta (Q14289 whole entry): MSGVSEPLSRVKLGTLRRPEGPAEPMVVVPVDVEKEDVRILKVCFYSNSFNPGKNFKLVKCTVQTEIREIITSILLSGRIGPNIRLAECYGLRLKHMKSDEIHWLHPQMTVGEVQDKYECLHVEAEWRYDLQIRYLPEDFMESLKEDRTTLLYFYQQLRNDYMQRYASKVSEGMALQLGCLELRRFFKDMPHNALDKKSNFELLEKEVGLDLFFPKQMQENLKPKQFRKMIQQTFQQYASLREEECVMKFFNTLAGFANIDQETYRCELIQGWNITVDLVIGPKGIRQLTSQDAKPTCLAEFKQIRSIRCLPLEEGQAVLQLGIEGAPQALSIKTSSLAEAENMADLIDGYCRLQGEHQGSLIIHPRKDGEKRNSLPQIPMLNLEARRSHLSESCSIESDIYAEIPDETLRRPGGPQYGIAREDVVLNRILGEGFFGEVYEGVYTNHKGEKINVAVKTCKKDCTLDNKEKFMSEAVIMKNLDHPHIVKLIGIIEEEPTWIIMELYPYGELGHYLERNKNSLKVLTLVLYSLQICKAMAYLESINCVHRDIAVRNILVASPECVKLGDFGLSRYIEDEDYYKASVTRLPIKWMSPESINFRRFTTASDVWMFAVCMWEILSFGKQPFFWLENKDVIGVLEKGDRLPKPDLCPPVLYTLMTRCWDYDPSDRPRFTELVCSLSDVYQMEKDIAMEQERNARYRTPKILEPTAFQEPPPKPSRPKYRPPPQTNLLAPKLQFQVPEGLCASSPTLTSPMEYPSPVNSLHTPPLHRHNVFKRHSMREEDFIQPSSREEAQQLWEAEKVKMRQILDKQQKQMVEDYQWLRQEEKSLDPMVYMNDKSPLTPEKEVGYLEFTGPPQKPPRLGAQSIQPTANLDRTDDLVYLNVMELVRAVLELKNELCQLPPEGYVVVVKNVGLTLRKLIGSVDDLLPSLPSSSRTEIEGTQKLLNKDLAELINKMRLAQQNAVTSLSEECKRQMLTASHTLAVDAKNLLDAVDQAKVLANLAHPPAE

[14] = cells; format: functional
[15] = Trypanosoma cruzi growth suppression in host cells – NIH3T3 host cells, beta-gal luminescence, confirmation (AID 2044); format: functional, cell-based;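 further: intracellular parasites grown in NIH/3T3 mouse fibroblasts as host cells; luminescent beta-galactosidase reporter signal from transgenic T. cruzi replicating inside host cells; inhibitors lower the luminescence signal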
[16] = NIH3T3 cell viability loss – ATP luminescence, mouse fibroblasts, counter-screen, dose response (AID 2010); format: functional, cell-based;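 further: cells exposed to compound for about 90 hours before reading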
[17] = THP-1 cell cytotoxicity, dose response, cytotoxicity control for non-replicating M. tuberculosis project (AID 489025); format: functional
[18] = Vero E6 cell cytotoxicity, dose response, cytotoxicity control for non-replicating M. tuberculosis project, secondary assay (AID 492998); format: functional, VeroE6; settings: Vero C1008
[19] = cells
[20] = biological target: Voltage-dependent T-type calcium channel subunit alpha-1H (Homo sapiens, UniProt O95180); format: functional;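 further: channel activity triggered by adding a high calcium stimulation buffer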
[21] = viability inhibitors of stage V gametocytes – luminescence, dose response (AID 1117278); format: functional, cell-based;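 further: gametocytes exposed to compound for 24 hours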
[22] = viability loss in human Jurkat cells – cell-based, luminescence, cytotoxicity control for P. falciparum gametocyte viability project, dose response (AID 1117277); format: functional;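 further: potency reflects loss of cellular ATP meaning fewer viable cells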
[23] = biological target: T4, Microphthalmia-associated transcription factor (Homo sapiens, UniProt O75030); experiment: reducers of TRPM1 reporter luminescence, concentration series – cell-based, SK-MEL-5, cherry-picked, set 3, MITF inhibitor project, dose response (AID 493073); format: functional;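 further: SK-MEL-5 melanoma cells with luciferase driven by the MITF target TRPM1 promoter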
T4 sequence (O75030 whole entry): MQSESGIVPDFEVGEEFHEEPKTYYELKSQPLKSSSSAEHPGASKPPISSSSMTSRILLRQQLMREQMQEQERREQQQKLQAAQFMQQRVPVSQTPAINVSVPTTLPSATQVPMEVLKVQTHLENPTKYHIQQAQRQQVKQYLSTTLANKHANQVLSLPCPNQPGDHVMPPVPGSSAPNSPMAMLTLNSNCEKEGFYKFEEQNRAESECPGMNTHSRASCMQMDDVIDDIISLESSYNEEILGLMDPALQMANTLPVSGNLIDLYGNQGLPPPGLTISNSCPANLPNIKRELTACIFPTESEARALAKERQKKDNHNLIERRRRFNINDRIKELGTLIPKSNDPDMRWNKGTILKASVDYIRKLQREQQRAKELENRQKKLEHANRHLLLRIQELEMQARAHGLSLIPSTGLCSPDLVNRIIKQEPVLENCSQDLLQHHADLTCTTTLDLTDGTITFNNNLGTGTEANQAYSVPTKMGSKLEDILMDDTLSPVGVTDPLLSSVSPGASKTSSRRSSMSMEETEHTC

[24] = biological target: T5, Estrogen receptor beta (Homo sapiens, UniProt Q92731);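 further: recombinant ER-beta bound to coactivator SRC1 peptide in presence of estradiol agonist; inhibitors block coactivator peptide binding and lower the FRET signal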
T5 sequence (Q92731 whole entry): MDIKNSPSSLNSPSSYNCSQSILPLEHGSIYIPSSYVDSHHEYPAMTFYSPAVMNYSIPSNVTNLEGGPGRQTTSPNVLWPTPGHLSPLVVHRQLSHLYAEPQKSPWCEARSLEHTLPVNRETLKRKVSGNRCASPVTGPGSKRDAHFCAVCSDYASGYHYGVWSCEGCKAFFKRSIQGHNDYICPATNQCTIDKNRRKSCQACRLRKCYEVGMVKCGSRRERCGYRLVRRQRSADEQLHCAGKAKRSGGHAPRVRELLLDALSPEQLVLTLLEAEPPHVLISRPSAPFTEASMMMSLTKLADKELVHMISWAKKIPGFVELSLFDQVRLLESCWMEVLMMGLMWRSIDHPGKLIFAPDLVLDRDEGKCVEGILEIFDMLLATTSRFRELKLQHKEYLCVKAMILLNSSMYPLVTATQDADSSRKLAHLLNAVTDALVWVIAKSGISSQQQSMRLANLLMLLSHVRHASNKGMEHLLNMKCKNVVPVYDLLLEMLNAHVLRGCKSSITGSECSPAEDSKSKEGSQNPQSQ

[25] = biological target: T5, Estrogen receptor beta; experiment: blockers of SRC-3 recruitment to ERβ – biochemical, ELISA, streptavidin-HRP readout, orthogonal assay, confirmation (AID 1060)
[26] = biological target: T6, Bcl-2-like protein 10 (Homo sapiens, UniProt Q9HD36); experiment: Bcl-B/TR3 peptide binding disruption – biochemical, fluorescence polarization, FITC-TR3 peptide, selectivity assay for Bfl-1 inhibitor project, primary screen (AID 748);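 further: fluorescence polarization from a fluorescein-labelled TR3 peptide binding purified Bcl-B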
T6 sequence (Q9HD36 whole entry): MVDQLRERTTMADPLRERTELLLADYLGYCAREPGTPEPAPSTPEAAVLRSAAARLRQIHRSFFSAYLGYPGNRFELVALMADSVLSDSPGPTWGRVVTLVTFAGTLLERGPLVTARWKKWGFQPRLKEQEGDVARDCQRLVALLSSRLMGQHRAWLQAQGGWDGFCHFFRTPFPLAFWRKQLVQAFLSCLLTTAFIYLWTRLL

[27] = biological target: T7, Carboxy-terminal domain RNA polymerase II polypeptide A small phosphatase 1 (Homo sapiens, UniProt Q9GZU7); experiment: CTDSP1 inhibitors, concentration-response, biochemical, absorbance readout, ultra-high-throughput screen actives (AID 540297); format: functional
T7 sequence (Q9GZU7 whole entry): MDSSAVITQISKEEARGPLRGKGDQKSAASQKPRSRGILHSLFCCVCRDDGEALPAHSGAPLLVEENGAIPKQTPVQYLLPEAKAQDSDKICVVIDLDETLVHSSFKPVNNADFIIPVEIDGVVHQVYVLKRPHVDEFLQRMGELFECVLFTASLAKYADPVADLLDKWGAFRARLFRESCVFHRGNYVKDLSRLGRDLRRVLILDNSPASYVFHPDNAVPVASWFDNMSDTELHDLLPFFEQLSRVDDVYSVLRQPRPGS

[28] = biological target: T8, SUMO-activating enzyme (Homo sapiens, UniProt Q9UBT2); experiment: blockers of UBC9-mediated SUMO conjugation – biochemical, AlphaScreen, SUMOylation inhibitor project, confirmation (AID 2018); format: functional
T8 sequence (Q9UBE0 whole entry): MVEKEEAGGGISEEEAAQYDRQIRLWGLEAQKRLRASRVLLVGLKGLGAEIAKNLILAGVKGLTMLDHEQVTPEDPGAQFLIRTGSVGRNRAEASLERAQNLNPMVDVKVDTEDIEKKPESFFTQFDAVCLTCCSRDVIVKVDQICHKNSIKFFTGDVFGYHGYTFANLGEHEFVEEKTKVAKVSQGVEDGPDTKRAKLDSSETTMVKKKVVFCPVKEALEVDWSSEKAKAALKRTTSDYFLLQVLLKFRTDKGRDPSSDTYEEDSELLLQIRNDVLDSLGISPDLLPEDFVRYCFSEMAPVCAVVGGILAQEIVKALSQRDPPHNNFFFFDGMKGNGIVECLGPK
T8 sequence (Q9UBT2 whole entry): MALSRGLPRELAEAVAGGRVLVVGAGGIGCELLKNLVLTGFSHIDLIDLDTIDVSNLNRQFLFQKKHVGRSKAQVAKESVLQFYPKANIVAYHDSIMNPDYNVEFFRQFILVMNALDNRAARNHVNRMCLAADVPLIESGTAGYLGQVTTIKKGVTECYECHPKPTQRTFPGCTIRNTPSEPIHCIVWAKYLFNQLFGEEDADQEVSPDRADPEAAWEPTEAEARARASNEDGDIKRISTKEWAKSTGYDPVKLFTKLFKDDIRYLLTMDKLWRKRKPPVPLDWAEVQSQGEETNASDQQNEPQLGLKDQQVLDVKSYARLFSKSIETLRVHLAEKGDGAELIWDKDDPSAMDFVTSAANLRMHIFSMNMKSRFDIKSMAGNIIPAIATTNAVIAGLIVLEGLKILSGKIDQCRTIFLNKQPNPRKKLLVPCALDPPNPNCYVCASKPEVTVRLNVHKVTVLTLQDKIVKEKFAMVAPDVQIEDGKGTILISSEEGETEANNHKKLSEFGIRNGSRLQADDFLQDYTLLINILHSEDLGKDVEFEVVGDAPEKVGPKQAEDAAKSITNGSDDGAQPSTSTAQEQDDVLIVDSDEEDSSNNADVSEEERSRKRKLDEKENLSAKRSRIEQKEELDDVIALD

[29] = biological target: T8, SUMO-activating enzyme; experiment: blockers of SAE1/SAE2–UBC9 SUMO transfer – biochemical, HTRF, uHTS, primary screen (AID 2006); format: protein-complex assay
[30] = A cytotoxicity screen of small molecule inhibitors of the PhoP region in Salmonella typhi identified in the primary screen. [Related pubchem assays: 1850, 1864, 1985 ]; format: functional

Which IC50 [1] does the source give for `N#Cc1c(NCCO)nc(NCc2ccccc2)c2c1CCN(Cc1ccccc1)C2` here?
Its IC50 is > 50 µM (not active).

What about the IC50 [2] of the same compound?
The IC50 was > 50 µM (not active).

What does the source list for `O=S1(=O)C=C(Sc2nc3ccccc3s2)c2ccccc21`?
EC50 [3]: 1.23 µM (active); EC50 [4]: 3.93 µM (inconclusive); EC50 [5]: 6.14 µM (inconclusive); IC50 [6]: 0.474 µM (active); EC50 [7]: 1.73 µM (inconclusive); EC50 [8]: 3.3 µM (active); IC50 [9]: 12.6 µM (not active); IC50 [10]: 60.3 µM (inactive); EC50 [11]: 0.13 µM (active); AC50 [12]: 3.36 µM (active)

For `Cc1ccc(-c2onc3ccc(C=O)cc23)cc1`, which IC50 [13] is on record?
The IC50 was 30.1 µM (not active).

What does the source list for `CCOC(=O)CNCCC(=O)c1ccc(Br)cc1`?
IC50 [1]: > 50 µM (not active); IC50 [2]: > 50 µM (not active); IC50 [14]: 20.4 µM (active)

Which results are given for `CCN1CCN(c2ccc(S(=O)(=O)N3CCCCC3)cc2NC(=O)c2ccc([N+](=O)[O-])s2)CC1`?
EC50 [15]: < 0.1 µM (active); EC50 [16]: 6.56 µM (active); CC50 [17]: 10.5 µM (active); CC50 [18]: 8.95 µM (active); IC50 [14]: 7.51 µM (active); AC50 [12]: 3.46 µM (active); EC50 [19]: 0.052 µM (active)

Which results are given for `CCCn1nnc(NC(=O)c2ccc(-c3cccc(Cl)c3)o2)n1`?
EC50 [20]: 6.81 µM (active); IC50 [21]: > 109 µM (inactive); IC50 [22]: > 83.4 µM (inactive)

Which results are given for `CC(=O)Cn1ncc(Br)c(Br)c1=O`?
EC50 [4]: 12.4 µM (active); EC50 [15]: 1.24 µM (active); EC50 [16]: 0.976 µM (active); IC50 [6]: 4.22 µM (active); IC50 [9]: 16.6 µM (not active); AC50 [23]: 15.8 µM (active)

Which IC50 [24] does the source give for `O=C(Nc1cccc2cccc(NC(=O)c3ccco3)c12)c1ccco1` here?
Its IC50 is 15.5 µM (active).

And the IC50 [25]?
The IC50 was > 50 µM (not active).

What does the source list for `O=C(CCC1CCCN(Cc2ccc(O)c(Cl)c2)C1)NCc1ccccc1F` (centres undefined)?
EC50 [15]: < 0.1 µM (active); EC50 [16]: > 60 µM (not active); EC50 [19]: 0.077 µM (active)

For `COc1ccccc1-c1nnc2sc(-c3cnccn3)nn12`, which IC50 [26] is on record?
Its IC50 is 28.5 µM (active).

And the IC50 [24]?
Its IC50 is 4.15 µM (active).

What about the IC50 [27] of the same compound?
The IC50 was 9.06 µM (active).

For `Cn1c2ccccc2c(=O)n2c(=O)c3ccccc3cc12`, which IC50 [28] is on record?
The IC50 was 3.28 µM (active).

And the IC50 [29]?
Its IC50 is 10.9 µM (active).

What about the IC50 [13] of the same compound?
The IC50 was > 69.5 µM (not active).

With `CCOc1ccc(NC(=O)CN(C)C(=O)c2ccccc2CCc2ccccc2)cc1OCC` as the compound, how does the EC50 [30] read?
Its EC50 is > 50 µM (active).

With `CN1CCN(CC(=O)Nc2sc3c(c2C#N)CCC3)CC1` as the compound, how does the IC50 [25] read?
Its IC50 is > 50 µM (not active).

Which IC50 [21] does the source give for `Cc1cc(C(=O)NCCC2=CCCCC2)no1` here?
Its IC50 is > 109 µM (inactive).

And the IC50 [22]?
The IC50 was > 83.3 µM (inactive).

For `O=C(N/N=C/c1ccc2ccccc2c1)c1ccc(COc2ccc3c(c2)CCC3)o1`, which IC50 [13] is on record?
Its IC50 is > 69.5 µM (not active).

What about the IC50 [27] of the same compound?
The IC50 was 3.24 µM (active).

From ChEMBL document CHEMBL1201862, “PubChem BioAssay data set” (2004)
